In patent publication US10214512B2, “Factor XIA inhibitors” (MERCK SHARP & DOHME CORP., priority 2015, dated 2019):
Read-outs that look alike come from different tables or passages of the source.

Experiments:
[1] = molecular target: purified human Factor XIa (Homo sapiens (Human), UniProt P03951); assay: Factor XIa Assay; type: biochemical; settings: purified human Factor XIa 40 pM; substrate Z-Gly-Pro-Arg-AFC 100 μM; 50 mM HEPES pH 7.4; read-out: Human FXIa Ki
Outline: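 Ki obtained from the dependence of uninhibited/inhibited initial-velocity ratio on inhibitor concentration, under a competitive-inhibition model. Reactions used 100 μM Z-Gly-Pro-Arg-AFC and 40 pM final human Factor XIa in pH 7.4 HEPES buffer with NaCl, CaCl2 and PEG 8000; run at rt or 37° C following pre-equilibration.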

[2] = molecular target: purified Human plasma Kallikrein (Homo sapiens (Human), UniProt P03952); assay: Kallikrein Assay; type: biochemical
Chain of purified Human plasma Kallikrein (P03952 391-638): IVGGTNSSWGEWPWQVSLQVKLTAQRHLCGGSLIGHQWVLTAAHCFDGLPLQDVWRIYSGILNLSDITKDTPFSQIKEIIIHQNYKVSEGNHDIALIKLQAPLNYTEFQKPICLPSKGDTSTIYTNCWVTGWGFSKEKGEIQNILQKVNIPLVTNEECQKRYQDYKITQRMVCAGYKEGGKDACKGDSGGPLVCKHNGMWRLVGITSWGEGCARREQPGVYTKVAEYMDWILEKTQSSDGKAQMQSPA
Chain of purified Human plasma Kallikrein (P03952 20-390 partner): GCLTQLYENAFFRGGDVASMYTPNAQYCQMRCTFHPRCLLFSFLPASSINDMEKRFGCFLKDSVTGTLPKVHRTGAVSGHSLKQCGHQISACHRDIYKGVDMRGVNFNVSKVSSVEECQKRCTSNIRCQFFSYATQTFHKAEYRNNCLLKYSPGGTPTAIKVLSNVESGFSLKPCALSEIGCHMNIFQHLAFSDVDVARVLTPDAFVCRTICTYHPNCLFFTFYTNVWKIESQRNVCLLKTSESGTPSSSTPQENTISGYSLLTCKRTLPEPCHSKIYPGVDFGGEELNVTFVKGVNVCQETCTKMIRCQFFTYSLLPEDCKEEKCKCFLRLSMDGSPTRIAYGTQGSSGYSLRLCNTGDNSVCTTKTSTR
Outline: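 Purified human plasma kallikrein (0.5 nM) with fluorogenic Ac-K-P-R-AFC ([…]) in 50 mM HEPES pH 7.4, 150 mM NaCl, 5 mM CaCl2, 0.1% PEG 8000, at rt or 37 °C. Substrate hydrolysis rate read with and without inhibitor; IC50 from four-parameter logistic fit, converted to Ki by Cheng–Prusoff.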

[3] = purified Human plasma Kallikrein 0.5 nM, substrate Acetyl-K-P-R-AFC, 50 mM HEPES pH 7.4, Ki from IC50 by Cheng Prusoff

Chain of purified human Factor XIa (P03951 388-625): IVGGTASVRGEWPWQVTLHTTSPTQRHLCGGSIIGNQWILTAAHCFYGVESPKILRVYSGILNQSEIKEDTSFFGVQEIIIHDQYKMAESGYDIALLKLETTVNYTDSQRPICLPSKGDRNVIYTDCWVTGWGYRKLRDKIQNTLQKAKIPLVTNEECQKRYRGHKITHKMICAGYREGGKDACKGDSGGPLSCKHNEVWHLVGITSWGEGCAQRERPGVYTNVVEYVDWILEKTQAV
Chain of purified human Factor XIa (P03951 19-387 partner): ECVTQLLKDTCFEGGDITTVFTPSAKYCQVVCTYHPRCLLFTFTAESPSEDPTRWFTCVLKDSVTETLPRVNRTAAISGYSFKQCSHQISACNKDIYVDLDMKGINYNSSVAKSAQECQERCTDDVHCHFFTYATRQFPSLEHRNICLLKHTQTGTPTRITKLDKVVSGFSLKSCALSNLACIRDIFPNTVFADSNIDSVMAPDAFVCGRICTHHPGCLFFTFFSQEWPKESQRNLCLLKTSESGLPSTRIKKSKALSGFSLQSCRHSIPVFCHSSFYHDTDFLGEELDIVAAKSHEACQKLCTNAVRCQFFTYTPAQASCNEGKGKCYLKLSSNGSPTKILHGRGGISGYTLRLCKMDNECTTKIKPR

SMILES: O=C1CCCC[C@H](c2ccc(-c3cc(Cl)ccc3-n3cnnn3)c[n+]2[O-])c2cccc(c2)-c2cc(C(=O)O)ccc2N1 [Example 4-b, 2-(2^5-Carboxy-4-oxo-3-aza-1(1,3),2(1,2)-dibenzenacyclononaphane-9-yl)-5-(5-chloro-2-(1H-tetrazol-1-yl)phenyl)pyridine 1-oxide]
- Ki [1]: 8.4 nM
- Ki [2]: 332 nM

SMILES: CC1CCCC(c2ccc(-c3c(-n4cnnn4)ccc(Cl)c3F)c[n+]2[O-])c2cccc(c2)-c2cc(F)ccc2NC1=O (stereo not drawn) [Example 8, 5,5-(3-chloro-2-fluoro-6-(1h-tetrazol-1-yl)phenyl)-2-(2^5-fluoro-5-methyl-4-oxo-3-aza-1(1,3),2(1,2)-dibenzenacyclononaphane-9-yl)pyridine 1-oxide]
- Ki [1]: 0.41 nM
- Ki [2, 3]: 1.94 nM

SMILES: COC(=O)Nc1ccc2c(c1)NC(=O)CCCC[C@H](c1ccc(-c3cc(Cl)ccc3-n3cc(C(F)(F)F)nn3)c[n+]1[O-])c1cccc-2c1 [Example 39, (S)-5-(5-chloro-2-(4-(trifluoromethyl)-1H-1,2,3-triazol-1-yl)phenyl)-2-(2^4-((methoxycarbonyl)amino)-4-oxo-3-aza-1(1,3),2(1,2)-dibenzenacyclononaphane-9-yl)pyridine 1-oxide]
- Ki [1]: 0.26 nM
- Ki [2, 3]: 0.81 nM

SMILES: CCOC(=O)Nc1ccc2c(c1)NC(=O)CCCC[C@H](c1ccc(-c3c(F)ccc(Cl)c3F)c[n+]1[O-])c1cccc-2c1 [Example 44, (s)-5-(3-chloro-2,6-difluorophenyl)-2-(2^4-((ethoxycarbonyl)amino)-4-oxo-3-aza-1(1,3),2(1,2)-dinenzenacyclononaphane-9-yl)pyridine 1-oxide]
- Ki [1]: 1.23 nM
- Ki [2, 3]: 2.7 nM

SMILES: CC(C)(C)OCCOC(=O)Nc1ccc2c(c1)NC(=O)CCCC[C@H](c1ccc(-c3c(F)ccc(Cl)c3F)c[n+]1[O-])c1cccc-2c1 [Example 45, (S)-2-(2^4-(((2-(tert-butoxy)ethoxy)carbonyl)amino)-4-oxo-3-aza-1(1,3),2(1,2)-dinenzenacyclononaphane-9-yl)-5-(3-chloro-2,6-difluorophenyl)pyridine 1-oxide]
- Ki [1]: 0.24 nM
- Ki [2, 3]: 0.44 nM

SMILES: O=C1CCCC[C@H](c2ccc(-c3c(F)ccc(Cl)c3F)c[n+]2[O-])c2cccc(c2)-c2ccc(Nc3cccnc3)cc2N1 [Example 47, 5-(3-chloro-2,6-difluorophenyl)-2-(4-oxo-2^4-(pyridin-3-ylamino)-3-aza-1(1,3),2(1,2)-dinenzenacyclononaphane-9-yl)pyridine 1-oxide]
- Ki [1]: 1.89 nM
- Ki [2, 3]: 5.01 nM

SMILES: O=C1CCCC[C@H](c2ccc(-c3c(F)ccc(Cl)c3F)c[n+]2[O-])c2cccc(c2)-c2ccc(Nc3ncccn3)cc2N1 [Example 48, (S)-5-(3-chloro-2,6-difluorophenyl)-2-(4-oxo-2^4-(pyrimidin-2-YLAMINO)-3-AZA-1 (1,3),2(1,2)-dinenzenacyclononaphane-9-yl)pyridine 1-oxide]
- Ki [1]: 2.1 nM
- Ki [2, 3]: 1.76 nM

SMILES: COC(=O)Nc1ccc2c(c1)NC(=O)CCCCC(c1ccc(-c3cc(Cl)ccc3-n3cnnn3)cn1)c1cc(F)cc-2c1 (stereo not drawn) [Example 51, Methyl (9-(5-(5-chloro-2-(1H-tetrazol-1-yl)phenyl)pyridin-2-yl)-1^5-fluoro-4-oxo-3-aza-1(1,3),2(1,2)-dinenzenacyclononaphane-2^4-yl)carbamate]
- Ki [1]: 2.76 nM
- Ki [2, 3]: 46.6 nM

SMILES: COC(=O)Nc1ccc2c(c1)NC(=O)CCCCC(c1ccc(-c3cc(Cl)ccc3-n3cnnn3)c[n+]1[O-])c1cc(F)cc-2c1 (stereo not drawn) [Example 52, 5-(5-chloro-2-(1h-tetrazol-1-yl)phenyl)-2-(1^5-fluoro-2^4-((methoxycarbonyl)amino)-4-oxo-3-aza-1(1,3),2(1,2) -dinenzenacyclononaphane-9-yl)pyridine 1-oxide]
- Ki [1]: 0.32 nM
- Ki [2, 3]: 1.43 nM

SMILES: O=C1CCCCC(c2ccc(-c3cc(Cl)ccc3-n3cnnn3)cn2)c2ccnc(c2)-c2cc(F)ccc2N1 (stereo not drawn) [Example 56, 9-(5-(5-chloro-2-(1h-tetrazol-1-yl)phenyl)pyridin-2-yl)-25-fluoro-3-aza-1(2,4)-pyridina-2(1,2)-benzenacyclononaphan-4-one]
- Ki [1]: 14.1 nM
- Ki [2, 3]: 149 nM

SMILES: COC(=O)Nc1ccc2c(c1)NC(=O)CCCCC(c1ccc(-c3cc(Cl)ccc3-n3cnnn3)cn1)c1cc-2ncc1F (stereo not drawn) [Example 57, methyl (9-(5-(5-chloro-2-(1h-tetrazol-1-yl)phenyl)pyridin-2-yl)-1^5-fluoro-4-oxo-3-aza-1(2,4)-pyridina-2(1,2)-benzenacyclononaphane-2^4-yl)carbamate]
- Ki [1]: 0.52 nM
- Ki [2, 3]: 12.1 nM

SMILES: COC(=O)Nc1ccc2c(c1)NC(=O)CCCCC(c1ccc(-c3cc(Cl)ccc3-n3cnnn3)cn1)c1cc-2c(F)cn1 (stereo not drawn) [Example 61, methyl (9-(5-(5-chloro-2-(1h-tetrazol-1-yl)phenyl)pyridin-2-yl)-1^5-fluoro-4-oxo-3-aza-1(4,2)-pyridina-2(1,2)-benzenacyclononaphane-2^4-yl)carbamate]
- Ki [1]: 1.4 nM
- Ki [2, 3]: 26 nM

SMILES: COC(=O)Nc1ccc2c(c1)NC(=O)CCCCC(c1ccc(-c3cc(Cl)ccc3-n3cnnn3)cn1)c1cc-2ncn1 (stereo not drawn) [Example 65, methyl (9-(5-(5-chloro-2-(1h-tetrazol-1-yl)phenyl)pyridin-2-yl)-4-oxo-3-aza-1(4,6)-pyrimidina-2(1,2)-benzenacyclononaphane-2^4-yl)carbamate]
- Ki [1]: 2.9 nM
- Ki [2, 3]: 6 nM

SMILES: O=C1CCCCC(c2ccc(-c3cc(Cl)ccc3-n3cnnn3)c[n+]2[O-])c2ccnc(c2)-c2cc(F)ccc2N1 (stereo not drawn) [Example 70, 5-(5-chloro-2-(1H-tetrazol-1-yl)phenyl)-2-(2^5-fluoro-4-oxo-3-aza-1(2,4)-pyridina-2(1,2)-benzenacyclononaphane-9-yl)pyridine 1-oxide]
- Ki [1]: 0.37 nM
- Ki [2, 3]: 2.09 nM

SMILES: O=C1CCCCC(c2ccc(-c3cc(Cl)ccc3-n3cnnn3)c[n+]2[O-])c2cc[n+]([O-])c(c2)-c2cc(F)ccc2N1 (stereo not drawn) [Example 80, 9-(5-(5-chloro-2-(1h-tetrazol-1-yl)phenyl)-1-oxidopyridin-2-yl)-2^5-fluoro-4-oxo-3-aza-1(2,4)-pyridin-1-iuma-2(1,2)-benzenacyclononaphane 1^1-oxide]
- Ki [1]: 0.59 nM
- Ki [2, 3]: 13.3 nM

SMILES: COC(=O)Nc1ccc2c(c1)NC(=O)CCCCC(c1ccc(-c3c(F)ccc(Cl)c3F)c[n+]1[O-])c1cc-2[n+]([O-])cc1F (stereo not drawn) [Example 82, 9-(5-(3-chloro-2,6-difluorophenyl)-1-oxidopyridin-2-yl)-1^5-fluoro-2^4-((methoxycarbonyl)amino)-4-oxo-3-aza-1(2,4)-pyridin-1-iuma-2(1,2)-benzenacyclononaphane 1^1-oxide]
- Ki [1]: 3.7 nM
- Ki [2, 3]: 9.58 nM

SMILES: COC(=O)Nc1ccc2c(c1)NC(=O)CCCCC(c1ccc(-c3c(F)ccc(Cl)c3F)c[n+]1[O-])c1cc-2cc[n+]1[O-] (stereo not drawn) [Example 83, 9-(5-(3-chloro-2,6-difluorophenyl)-1-oxidopyridin-2-yl)-2^4-((methoxycarbonyl)amino)-4-oxo-3-aza-1(4,2)-pyridin-1-iuma-2(1,2)-benzenacyclononaphane 1^1-oxide]
- Ki [1]: 2.2 nM
- Ki [2, 3]: 5.47 nM

SMILES: CC1CCCC(c2ccc(-c3cc(Cl)ccc3-n3cnnn3)c[n+]2[O-])c2cccc(c2)-c2ccc(C#N)cc2NC1=O (stereo not drawn) [Example 84, 5-(5-chloro-2-(1H-tetrazol-1-yl)phenyl)-2-(2^4-cyano-5-Methyl-4-OXO-3-aza-1(1,3), 2(1,2)-dinenzenacyclononaphane-9-yl)pyridine 1-oxide]
- Ki [1]: 0.38 nM
- Ki [2, 3]: 1.85 nM
